Assay results from PubChem BioAssay (NCI).
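Where inhibition never reached the appropriate level, the endpoint shown equals the highest concentration tested. Otherwise, values were interpolated linearly from a five-concentration, 48-hour dose response in 96-well plates. TGI marks complete inhibition of growth.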

Tests used:
Test in all cases: NCI-60 cell line screen, 48 h
NCI-H226 lung = system: NCI-H226 lung
U251 CNS = system: U251 CNS
HT29 colon = system: HT29 colon
SK-MEL-28 melanoma = system: SK-MEL-28 melanoma
M19-MEL melanoma = system: M19-MEL melanoma
NCI-H23 lung = system: NCI-H23 lung
MOLT-4 leukemia = system: MOLT-4 leukemia
EKVX NSCLC = system: EKVX NSCLC
DMS 273 small cell lung = system: DMS 273 small cell lung
KM12 colon = system: KM12 colon
SF-268 CNS = system: SF-268 CNS
A498 renal = system: A498 renal
NCI-H460 lung = system: NCI-H460 lung
NCI-H522 lung = system: NCI-H522 lung
A549 NSCLC = system: A549 NSCLC
HL-60(TB) leukemia = system: HL-60(TB) leukemia
HOP-92 NSCLC = system: HOP-92 NSCLC
SK-OV-3 ovarian = system: SK-OV-3 ovarian
M14 melanoma = system: M14 melanoma
SNB-78 CNS = system: SNB-78 CNS
K-562 leukemia = system: K-562 leukemia
CCRF-CEM leukemia = system: CCRF-CEM leukemia
SNB-19 CNS = system: SNB-19 CNS
UACC-62 melanoma = system: UACC-62 melanoma
SR leukemia = system: SR leukemia
HOP-62 NSCLC = system: HOP-62 NSCLC
TK-10 renal = system: TK-10 renal
IGROV1 ovarian = system: IGROV1 ovarian
RXF 393 renal = system: RXF 393 renal
UO-31 renal = system: UO-31 renal
OVCAR-5 ovarian = system: OVCAR-5 ovarian
T-47D breast = system: T-47D breast
RPMI-8226 leukemia = system: RPMI-8226 leukemia
786-0 renal = system: 786-0 renal
HCT-15 colon = system: HCT-15 colon
COLO 205 colon = system: COLO 205 colon
ACHN renal = system: ACHN renal
CAKI-1 renal = system: CAKI-1 renal
MCF7 breast = system: MCF7 breast
MDA-N = system: MDA-N
SNB-75 CNS = system: SNB-75 CNS
SF-539 CNS = system: SF-539 CNS
MDA-MB-231 breast = system: MDA-MB-231 breast
HCT-116 colon = system: HCT-116 colon
UACC-257 melanoma = system: UACC-257 melanoma
MDA-MB-435 = system: MDA-MB-435
LOX IMVI melanoma = system: LOX IMVI melanoma
DU-145 prostate = system: DU-145 prostate
MALME-3M melanoma = system: MALME-3M melanoma
SK-MEL-2 melanoma = system: SK-MEL-2 melanoma
NCI/ADR-RES ovarian = system: NCI/ADR-RES ovarian
OVCAR-8 ovarian = system: OVCAR-8 ovarian
PC-3 prostate = system: PC-3 prostate
OVCAR-4 ovarian = system: OVCAR-4 ovarian
HCC-2998 colon = system: HCC-2998 colon
HS 578T breast = system: HS 578T breast
SN12C renal = system: SN12C renal
SK-MEL-5 melanoma = system: SK-MEL-5 melanoma
SW-620 colon = system: SW-620 colon
BT-549 breast = system: BT-549 breast
OVCAR-3 ovarian = system: OVCAR-3 ovarian
SF-295 CNS = system: SF-295 CNS

SMILES: N#CC1Sc2ccccc2-n2cccc21 (centres undefined)
- TGI (NCI-H226 lung): 87.6 µM
- TGI (U251 CNS): > 100 µM
- TGI (HT29 colon): > 100 µM
- TGI (SK-MEL-28 melanoma): > 100 µM
- TGI (M19-MEL melanoma): > 100 µM
- TGI (NCI-H23 lung): > 100 µM
- TGI (MOLT-4 leukemia): > 100 µM
- TGI (EKVX NSCLC): > 100 µM
- TGI (DMS 273 small cell lung): > 100 µM
- TGI (KM12 colon): > 100 µM
- TGI (SF-268 CNS): 78.2 µM
- TGI (A498 renal): > 100 µM
- TGI (NCI-H460 lung): > 100 µM
- TGI (NCI-H522 lung): > 100 µM
- TGI (A549 NSCLC): > 100 µM
- TGI (HL-60(TB) leukemia): 61.6 µM
- TGI (HOP-92 NSCLC): > 100 µM
- TGI (SK-OV-3 ovarian): > 100 µM
- TGI (M14 melanoma): > 100 µM
- TGI (SNB-78 CNS): > 100 µM
- TGI (K-562 leukemia): 95.5 µM
- TGI (CCRF-CEM leukemia): > 100 µM
- TGI (SNB-19 CNS): > 100 µM
- TGI (UACC-62 melanoma): 99.2 µM
- TGI (SR leukemia): > 100 µM
- TGI (HOP-62 NSCLC): > 100 µM
- TGI (TK-10 renal): > 100 µM
- TGI (IGROV1 ovarian): > 100 µM
- TGI (RXF 393 renal): 67.3 µM
- TGI (UO-31 renal): 93.3 µM
- TGI (OVCAR-5 ovarian): > 100 µM

SMILES: C=C(CC[C@@H](C)[C@H]1CC[C@H]2[C@@H]3C[C@@H](O)[C@H]4C[C@@H](O)CC[C@]4(CO)[C@H]3CC[C@]12C)C(C)C
- TGI (T-47D breast): 8.47 µM
- TGI (NCI-H226 lung): 18.4 µM
- TGI (RPMI-8226 leukemia): 11.6 µM
- TGI (786-0 renal): 11.1 µM
- TGI (HCT-15 colon): 8.27 µM
- TGI (U251 CNS): 13 µM
- TGI (HT29 colon): 7.91 µM
- TGI (SK-MEL-28 melanoma): 10.3 µM
- TGI (COLO 205 colon): 15.8 µM
- TGI (ACHN renal): 12 µM
- TGI (NCI-H23 lung): 12 µM
- TGI (MOLT-4 leukemia): 10.8 µM
- TGI (EKVX NSCLC): 4.34 µM
- TGI (CAKI-1 renal): 11.8 µM
- TGI (MCF7 breast): 9.53 µM
- TGI (MDA-N): 15.6 µM
- TGI (SNB-75 CNS): 15.1 µM
- TGI (SF-539 CNS): 20.6 µM
- TGI (MDA-MB-231 breast): 10.4 µM
- TGI (KM12 colon): 8.01 µM
- TGI (HCT-116 colon): 8.91 µM
- TGI (SF-268 CNS): 12.6 µM
- TGI (A498 renal): 13.3 µM
- TGI (UACC-257 melanoma): 14.8 µM
- TGI (NCI-H460 lung): 7.14 µM
- TGI (MDA-MB-435): 14.2 µM
- TGI (LOX IMVI melanoma): 9 µM
- TGI (NCI-H522 lung): 11.1 µM
- TGI (DU-145 prostate): 10 µM
- TGI (MALME-3M melanoma): 12.8 µM
- TGI (A549 NSCLC): 11.1 µM
- TGI (HL-60(TB) leukemia): 14.9 µM
- TGI (HOP-92 NSCLC): 15.5 µM
- TGI (SK-OV-3 ovarian): 16.3 µM
- TGI (SK-MEL-2 melanoma): 13.9 µM
- TGI (NCI/ADR-RES ovarian): 12.2 µM
- TGI (M14 melanoma): 14.7 µM
- TGI (K-562 leukemia): 6.92 µM
- TGI (OVCAR-8 ovarian): 12.5 µM
- TGI (PC-3 prostate): 10.8 µM
- TGI (OVCAR-4 ovarian): 13.4 µM
- TGI (HCC-2998 colon): 6.33 µM
- TGI (HS 578T breast): 12.4 µM
- TGI (CCRF-CEM leukemia): 10.5 µM
- TGI (SNB-19 CNS): 15.3 µM
- TGI (SN12C renal): 12.6 µM
- TGI (SK-MEL-5 melanoma): 15.9 µM
- TGI (SW-620 colon): 16.5 µM
- TGI (UACC-62 melanoma): 15 µM
- TGI (SR leukemia): 9.77 µM
- TGI (HOP-62 NSCLC): 14.8 µM
- TGI (TK-10 renal): 5.47 µM
- TGI (BT-549 breast): 15 µM
- TGI (IGROV1 ovarian): 12.6 µM
- TGI (RXF 393 renal): 8.42 µM
- TGI (OVCAR-3 ovarian): 8.77 µM
- TGI (SF-295 CNS): 17.1 µM
- TGI (UO-31 renal): 11.1 µM
- TGI (OVCAR-5 ovarian): 13.3 µM

SMILES: C=C(C)C(=O)OC1C[C@H](COC(C)=O)C2CC=C(C)C2C2OC(=O)C(=C)[C@H]12 (some centres undefined)
- TGI (T-47D breast): 20.8 µM
- TGI (NCI-H226 lung): 31.8 µM
- TGI (RPMI-8226 leukemia): 2.61 µM
- TGI (786-0 renal): 7.26 µM
- TGI (HCT-15 colon): 5.17 µM
- TGI (U251 CNS): 22.1 µM
- TGI (HT29 colon): 18 µM
- TGI (SK-MEL-28 melanoma): 7.08 µM
- TGI (COLO 205 colon): 6.17 µM
- TGI (ACHN renal): 11.8 µM
- TGI (NCI-H23 lung): 14.2 µM
- TGI (MOLT-4 leukemia): 5.24 µM
- TGI (EKVX NSCLC): 23.4 µM
- TGI (CAKI-1 renal): 7 µM
- TGI (MCF7 breast): 14.7 µM
- TGI (MDA-N): 10.3 µM
- TGI (SNB-75 CNS): 24.2 µM
- TGI (SF-539 CNS): 10.1 µM
- TGI (MDA-MB-231 breast): 13.5 µM
- TGI (KM12 colon): 24.2 µM
- TGI (HCT-116 colon): 3.3 µM
- TGI (SF-268 CNS): 7.21 µM
- TGI (A498 renal): 27.8 µM
- TGI (UACC-257 melanoma): 13.2 µM
- TGI (NCI-H460 lung): 34.4 µM
- TGI (MDA-MB-435): 10.9 µM
- TGI (LOX IMVI melanoma): 4.86 µM
- TGI (NCI-H522 lung): 3.06 µM
- TGI (DU-145 prostate): 16.5 µM
- TGI (MALME-3M melanoma): 2.55 µM
- TGI (A549 NSCLC): 34.2 µM
- TGI (HL-60(TB) leukemia): 2.83 µM
- TGI (HOP-92 NSCLC): 5.9 µM
- TGI (SK-OV-3 ovarian): 31 µM
- TGI (SK-MEL-2 melanoma): 15.9 µM
- TGI (NCI/ADR-RES ovarian): 6.23 µM
- TGI (M14 melanoma): 4.23 µM
- TGI (K-562 leukemia): 5.56 µM
- TGI (OVCAR-8 ovarian): 13.3 µM
- TGI (PC-3 prostate): 15.1 µM
- TGI (OVCAR-4 ovarian): 5.57 µM
- TGI (HCC-2998 colon): 29.2 µM
- TGI (HS 578T breast): 14 µM
- TGI (CCRF-CEM leukemia): 5.03 µM
- TGI (SNB-19 CNS): 31.8 µM
- TGI (SN12C renal): 13.1 µM
- TGI (SK-MEL-5 melanoma): 20.3 µM
- TGI (SW-620 colon): 6.53 µM
- TGI (UACC-62 melanoma): 16.7 µM
- TGI (SR leukemia): 5.07 µM
- TGI (HOP-62 NSCLC): 27.7 µM
- TGI (TK-10 renal): 18.1 µM
- TGI (BT-549 breast): 14.4 µM
- TGI (IGROV1 ovarian): 25.5 µM
- TGI (RXF 393 renal): 14.1 µM
- TGI (OVCAR-3 ovarian): 5.3 µM
- TGI (SF-295 CNS): 33.8 µM
- TGI (UO-31 renal): 4.91 µM
- TGI (OVCAR-5 ovarian): 25.5 µM
